# Experimental data published in patent publication US8575116B1, “Polyacetylenic compounds for protecting against pancreatic islet atrophy” (Academia Sinica, priority 2010, dated 2013).
# “Also recorded” adds a separate entry of the source.
# Assays:
# [1] = tested on: rat pancreatic islet cells; assay: Intracellular staining for insulin and FACS in rat pancreatic islet cells; assay type: cell-based; conditions: 28 μM, brefeldin A, 24 h
# Experimental: FIGS. 4A-C show an increase in insulin mRNA and protein content by cytopiloyne in pancreatic islet cells. (A) HIT-T15 β-cells transfected with phINS-Luc and pRL-TK plasmids were incubated with vehicle (NS), glimepiride (GLM, 10 μM), high glucose (HG, 16.7 mM) or cytopiloyne at 7, 14 or 28 μM. Ten μg of cell lysates from these cells underwent to dual luciferase assays. […] (C) Rat pancreatic islet cells were treated with vehicle, glucose (3.3 mM (LG) or 16.7 mM (HG)) or cytopiloyne (CP, 7, 14 and 28 μM) in the presence of brefeldin A for 24 h. After anti-insulin antibody staining, these cells underwent FACS analysis. The percentage of insulin-positive β-cells is shown. All the results from 3 independent experiments are expressed as mean±SEM, and P<0.05 was considered to be statistically significant (*).
# The islets were disrupted into individual cells and underwent intracellular staining with anti-insulin antibody and FACS analysis.
# db/db mice [2] = assay: Prophylaxis of diabetes in diabetes-free db/db mice; assay type: in vivo, mouse; conditions: 0.5 mgkg^−1 daily for 4 weeks, diabetes-free db/db mice aged 4 weeks
# Experimental: FIGS. 2A-B show the prophylactic effect of cytopiloyne in db/db mice. […] Postprandial blood glucose levels in these mice were measured. (B) Blood insulin levels from the mice of […] were measured. Results from 3 independent experiments are expressed as mean±SEM, and P<0.05 was considered to be statistically significant (*).
# (§1) After 0.5 h, the levels of postprandial blood sugar and insulin from the mice were monitored for additional 4 h. For continued administration, diabetic db/db males were grouped and tube-fed with vehicle, cytopiloyne (0.5 or 2.5 mgkg^−1 day^−1) or glimepiride (2.5 mg kg^−1 day^−1) for the indicated time, while levels of blood sugar, insulin, and glycosylated HbA1c, and glucose tolerance in these mice were determined. To evaluate the prophylaxis of diabetes, diabetes-free db/db mice at 4 weeks of age were tube-fed with vehicle or cytopiloyne (CP, 0.5 mgkg^−1), once a day, for 4 weeks. Unless indicated otherwise, the mice were fasted for 16 h, then Postprandial blood glucose and insulin in these mice were measured.
# HIT-T15 cells = assay: Insulin secretion of β-cell line with PMA, GF109203X and cytopiloyne (ELISA); assay type: cell-based, rat; conditions: FIG. 6A; glucose 16.7 mM
# db/db mice [3] = assay: Long-term treatment of diabetic db/db mice: blood glucose and blood insulin; assay type: in vivo, mouse
# Experimental: FIGS. 1A-F show the anti-diabetic effects of cytopiloyne in db/db mice during long-term treatment. (A) Chemical structure of cytopiloyne (2-β-D-glucopyranosyloxy-1-hydroxytrideca-5,7,9,11-tetrayne). (B) Four groups of 6-to-8-week-old diabetic db/db mice were tube-fed with vehicle, cytopiloyne (CP, 0.5 and 2.5 mgkg^−1 day^−1) or glimepiride (GLM, 2.5 mgkg^−1 day^−1) from 0 to 42 days post-treatment. Blood glucose (BG) levels in these mice were measured. (C) Blood insulin levels from the mice of FIG. 1B. (D) IPGTT was performed in the db/db mice of FIG. 1B on day 0, 28 and 42, and blood glucose levels were monitored for 3.5 h. […] Results from 3 independent experiments are expressed as mean±SEM, and P<0.05 was considered to be statistically significant (*). […]
# as §1, with “To evaluate the prophylaxis of diabetes, diabetes-free db/db mice at 4 weeks of age were tube-fed with vehicle or cytopiloyne (CP, 0.5 mgkg^−1), once a day, for 4 weeks.” left out, “measured. […]” for “measured.”
compound,measurement,setting,value
"CC#CC#CC#CC#CCCC(CO)O[C@@H]1O[C@H](CO)[C@@H](O)[C@H](O)[C@H]1O (stereo partly drawn) [cytopiloyne, 2-β-D-glucopyranosyloxy-1-hydroxytrideca-5,7,9,11-tetrayne]",intracellular insulin levels compared to the vehicle treatment,[1],fivefold
same,blood sugar control in prophylactic treatment,db/db mice [2],control blood sugar in these mice much better than the control
same,prevention of T2D,db/db mice [2],failed to prevent the disease
same,insulin secretion in β-cell line,HIT-T15 cells,stimulated insulin secretion
same,"blood insulin levels, long-term treatment","db/db mice [3]; 0.5 and 2.5 mgkg^−1 day^−1, db/db mice (FIG. 1C)",increased blood insulin levels to a greater extent than glimepiride
same,blood sugar-lowering / anti-diabetic effect compared with glimepiride 2.5 mgkg^−1,"db/db mice [3]; 2.5 mgkg^−1 day^−1, long-term, fed db/db mice (FIG. 1B)",slightly therapeutically better than glimepiride at 2.5 mgkg^−1; also recorded: modestly better anti-diabetic effects at the same dose
